Series [1] concerns the target acetylcholine esterase (Homo sapiens, UniProt P22303). In words: biochemical. The text has this: The determination of the acetylcholine esterase inhibition was effected according to the method of Ellmann et al., Biochem. Pharmacol. 7 (1961) 88, and/or according to the method of Johnson et al., Analytical Biochemistry 64 (1975), 229.
Series [2] relates to mouse. In words: Toxicity, lowest lethal dose (LLD), mouse. Format: in vivo. The following applies: po mouse.
Series [3] deals with rat. Put plainly: Toxicity, lowest lethal dose (LLD), rat.
Series [4] concerns Sigma. In words: Sigma receptor binding, [3H]-DTG (Weber et al.). The following applies: for Percentage inhibition: [3H]-DTG. The text has this:
(§1) Furthermore, the compounds of formula I have affinity for sigma receptors, determined according to Weber et al., Proc. Natl. Acad. Sci. USA 83 (1986), 8784) and in part also for muscarinic receptors, determined according to Watson et al., Pharmacol. Exp. Ther. 237 (1986), 419 and according to Eberlein et al., Trends Pharmacol. Science 10 (1989), 50.

In series [5] the test system is M1. In words: Muscarinic M1 receptor binding, [3H]-Pirenzepine.
From the text: as §1

The test system of series [6] is M2. In words: Muscarinic M2 receptor binding, [3H]-AFDX 384.
From the text: as §1

Series [7] concerns muscarinic receptors. In words: Affinity for muscarinic receptors (Watson et al.; Eberlein et al.). Format: binding.
From the text: as §1

For series [8], the system named is muscarinic receptors. In words: Antagonism of contraction of guinea pig plexus myentericus preparation induced by muscarinic agonists (Kilbinger et al.). The conditions noted are these: micromolar concentrations.
[9] abbreviates: read-out: IC 50 for acetylcholine esterase inhibition.
The mark [10] stands for this setting: IC 50 for acetylcholine esterase inhibition.

Structures can show the parent of a compound that is named as a salt. Where two headings read alike, the source gives them in different places.

Sequence of acetylcholine esterase (P22303 32-614): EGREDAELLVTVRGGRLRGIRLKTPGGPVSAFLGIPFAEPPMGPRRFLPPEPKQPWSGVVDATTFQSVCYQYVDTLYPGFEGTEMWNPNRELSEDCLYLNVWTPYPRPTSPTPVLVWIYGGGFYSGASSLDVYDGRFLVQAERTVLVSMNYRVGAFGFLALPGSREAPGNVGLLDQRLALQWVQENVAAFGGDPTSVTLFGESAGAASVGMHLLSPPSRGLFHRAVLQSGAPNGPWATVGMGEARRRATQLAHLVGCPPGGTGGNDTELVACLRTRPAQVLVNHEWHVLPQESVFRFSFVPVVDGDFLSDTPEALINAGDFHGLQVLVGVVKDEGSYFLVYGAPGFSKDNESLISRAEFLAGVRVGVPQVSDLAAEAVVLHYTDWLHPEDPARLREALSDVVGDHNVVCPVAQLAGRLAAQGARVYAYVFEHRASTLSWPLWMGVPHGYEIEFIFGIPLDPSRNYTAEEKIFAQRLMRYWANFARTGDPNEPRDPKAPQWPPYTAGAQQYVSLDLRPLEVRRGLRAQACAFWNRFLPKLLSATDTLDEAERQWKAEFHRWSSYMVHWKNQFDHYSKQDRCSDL

On to `CCCN1CC[C@@H]2c3c(cccc3OC(=O)N(C)C)CC[C@@H]21` (racemic) [G, rac-cis-2,3,3a,4,5,9b-hexahydro-3-propyl-1H-benzo[e]indol-9-yl dimethylcarbamate], for which, in series [1] (setting [9]), the IC50 worked out at 350 nM. Further, the “LLD (lowest lethal dose)” value in series [2] is listed as 125 mg/kg.
In series [1] (setting [10]), `CN(C)C(=O)Oc1cccc2c1CC[C@H]1[C@@H]2CCN1CCCCCCN1C(=O)c2ccccc2C1=O.Cl` (racemic) [E, rac-cis-2,3,3a,4,5,9b-hexahydro-3-(6-phthalimidohexyl)-1H-benzo[e]indol-6-yl dimethylcarbamate hydrochloride] showed an IC50 of 0.4 nM. For the same compound, the “LLD (lowest lethal dose)” value in series [3] (sc rat) is given as 10 mg/kg.
With `CCCN1C[C@@H](C)[C@@H]2c3cccc(OC(=O)N(C)C)c3CC[C@@H]21` (relative stereo) [H, rac-2,3,3aα,4,5,9bα-hexahydro-1α-methyl-3-propyl-1H-benzo[e]indol-6-yl dimethylcarbamate], the IC50 in series [1] (setting [9]) is 488 nM. Besides, the “LLD (lowest lethal dose)” value in series [3] (sc rat) was 100 mg/kg.
The matching figures for `CN(C)C(=O)Oc1cccc2c1CC[C@H]1[C@@H]2CCN1CCC1CCCCC1` (single isomer, unassigned) [B, (-)-cis-3-(2-cyclohexylethyl)-2,3,3a,4,5,9b-hexahydro-1H-benzo[e]indol-6-yl dimethylcarabamate hydrochloride]: 30 nM and 30 mg/kg.
The compound `CN(C)C(=O)Oc1cccc2c1CC[C@H]1[C@@H]2CCN1CCC1CCCCC1.Cl` (racemic) [C, rac-cis-3-(2-cyclohexylethyl)-2,3,3a,4,5,9b-hexahydro-1H-benzo[e]indol-6-yl dimethylcarbamate hydrochloride] gave an IC50 in series [1] (setting [10]) of 16 nM. Besides, in series [3] (ip rat), the “LLD (lowest lethal dose)” value was 30 mg/kg.
In the same order, the values of `CN(C)C(=O)Oc1cccc2c1CC[C@H]1[C@@H]2CCN1CCCCN1C(=O)c2ccccc2C1=O.Cl` (racemic) [D, rac-cis-2,3,3a,4,5,9b-hexahydro-3-(4-phthalimidobutyl)-1H-benzo[e]indol-6-yl dimethylcarbamate hydrochloride] are 1.4 nM and 3 mg/kg.
The compound `CN(C)C(=O)Oc1cccc2c1CC[C@H]1[C@@H]2CCN1CCC1CCCCC1.Cl` (single isomer, unassigned) [A, (+)-cis-3-(2-cyclohexylethyl)-2,3,3a,4,5,9b-hexahydro-1H-benzo[e]indol-6-yl dimethylcarbamate hydrochloride] yielded an IC50 in series [1] (setting [10]) of 22 nM. In series [4], the “affinity for sigma receptors (in words)” value was “affinity to sigma receptors”. In addition, the Percentage inhibition in series [4] (10^-5 M) is given as 100.7%; in series [4] (10^-7 M), 62.1%; in series [5] (10^-5 M), 87.9%; in series [5] (10^-7 M), 2.2%; in series [6] ([3H]-AFDX 384, 10^-5 M) it was 94.8%; in series [6] ([3H]-AFDX 384, 10^-7 M), 31.3%. The “affinity for muscarinic receptors (in words)” value in series [7] is reported as “preferential affinity for muscarinic receptors of the M2 type”. The “antagonism of contraction induced by muscarinic agonists (in words)” value in series [8] is listed as “in micromolar concentrations it antagonizes a contraction of a preparation of guinea pig plexus myentericus induced by muscarinic agonists”. The “LLD (lowest lethal dose)” value in series [3] (sc rat) is recorded as 30 mg/kg.
Take `CN(C)C(=O)Oc1cccc2c1CC[C@H]1[C@@H]2CCN1CCCCC(=O)c1ccccc1` (racemic) [rac-3-(4-benzoyl-butyl)-cis-2,3,3a,4,5,9b-hexahydro-1H-benzo[e]indol-6-yl dimethylcarbamate]: in series [1] (setting [9]), the IC50 was found to be 612 nM.
On the same count and under the same terms, the same measure for `CN(C)C(=O)Oc1cccc2c1CC[C@H]1[C@@H]2CCN1CCCCCCN1C(=O)CC(C)(C)CC1=O` (racemic) [rac-3-[6-(4,4-dimethyl-2,6-dioxo-piperidin-1-yl)-hexyl]-cis-2,3,3a,4,5,9b-hexahydro-1H-benzo[e]indol-6-yl dimethylcarbamate]: 8 nM; for `CCN(C)C(=O)Oc1cccc2c1CC[C@H]1[C@@H]2CCN1CCC1CCCCC1` (single isomer, unassigned) [(+)-cis-3-(2-cyclohexylethyl)-2,3,3a,4,5,9b-hexahydro-1H-benzo[e]indol-6-yl ethylmethylcarbamate]: 3.5 nM.
Compound `CN(C)C(=O)Oc1cccc2c1CC[C@H]1[C@@H]2CCN1CCN1CCOCC1.Cl.Cl` (racemic) [F, rac-cis-2,3,3a,4,5,9b-hexahydro-3-(2-morpholinoethyl)-1H-benzo[e]indol-6-yl dimethylcarbamate dihydrochloride] displayed an IC50 in series [1] (setting [10]) of 108 nM. In series [3] (sc rat), the “LLD (lowest lethal dose)” value is listed as 30 mg/kg.
Turning to `CN(C)C(=O)Oc1cccc2c1CC[C@@H]1[C@H]2CCN1CCCCCCN` (relative stereo) [rac-3-(6-aminohexyl)-2,3,3a,4,5,9b-hexahydro-1H-cis-benzo[e]indol-6-yl dimethylcarbamate], the IC50 in series [1] (setting [9]) came out at 8 nM.
On the same count and under the same terms, the same measure for `CN(C)C(=O)Oc1cccc2c1CC[C@@H]1[C@H]2CCN1CCCCCCNC(=O)c1ccc(S(C)(=O)=O)cc1` (relative stereo) [rac-3-[6-(4-methanesulfonyl-benzoylamino)hexyl]-2,3,3a,4,5,9b-hexahydro-1H-cis-benzo[e]indol-6-yl-dimethylcarbamate]: 5.6 nM.
Same read-out and setting: the same measure for `CN(C)C(=O)Oc1cccc2c1CC[C@H]1[C@@H]2CCN1CCN1CCCCC1` (racemic) [rac-3-(2-piperidin-1-yl-ethyl)-cis-2,3,3a,4,5,9b-hexahydro-1H-benzo[e]indol-6-yl dimethylcarbamate]: 31 nM.
`CN(C)C(=O)Oc1cccc2c1CC[C@H]1[C@@H]2CCN1CCCCCNC(=O)c1ccc(S(C)(=O)=O)cc1` (racemic) [rac-cis-3-[5-(4-methanesulfonylbenzoylamino)pentyl]-2,3,3a,4,5,9b-hexahydro-1H-benzo[e]indol-6-yl dimethylcarbamate]: the IC50 in series [1] (setting [9]) is 5.1 nM.

The values above are taken from patent publication US5318967A, “2,3,3a,4,5,9b-hexahydro-1H-benzo[e]indole derivatives” (priority 1991, dated 1994).
